Test results reported in publication PMC7127258 (European Journal of Medicinal Chemistry, 2013).

Experiments:
[1] = tested on: interferon; details: rodents and cats; administered orally or intraperitoneally; cited from earlier work
[2] = tested on: renal papillae of rats; details: cited from earlier work
[3] = tested on: vesicular stomatitis virus (VSV); type: cell-based

Row | Structure (SMILES) | Interferon induction [1] | Toxicity upon chronic administration [2] | EC50 vesicular stomatitis virus [3]
1 | Cc1nc(N)nc(O)c1Br [Compound 6, 2-amino-5-bromo-6-methyl-4(3H)-pyrimidinone] | reported to induce interferon | toxicity-limiting crystal deposition in the renal papillae of rats | –
2 | CCCCCc1nc(N)[nH]c(=O)c1Br [Compound 14c, 2-Amino-5-bromo-6-pentylpyrimidin-4(3H)-one] | – | – | anti-VSV activity was not observed in HEL cell cultures
